The text below walks through data of US11446378B2, “Inhibitors of ephrin B1 for tumor treatment” (SANFORD HEALTH, priority 2017, dated 2022).

The test relates to PC12 cells. As to the kind of experiment: PC12 neurite outgrowth assay (β-III tubulin quantification by CX7). The test is classed as cell-based, rat. The protocol:
To test our hypothesis that tumor released exosomes induce neo-neurogenesis, we utilized PC12 cells, a rat pheochromocytoma cell line, as an in vitro screen. When stimulated with NGF (100 ng/ml), PC12 cells differentiate into neuron-like cells and extend neurites. We collected 10 ml of blood along with matched tumor tissue from three head and neck cancer patients (patient samples Pt1, Pt2, Pt3). We similarly collected blood from 3 healthy volunteers (Nl1, Nl2, Nl3) as well as adult tonsil tissue (TL). The tonsil was chosen as control tissue since the majority of HPV+ OPSCCs arise in the tonsil. Exosomes were purified, quantified by BCA protein assay and further validated by western blot analysis for the exosome markers CD9 and CD81 (FIG. 1E). To test whether they harbor neurite outgrowth activity, PC12 cells were treated with 3 μg exosomes, fixed 48 hours later and immunostained for β-III tubulin. Neurite outgrowth was quantified using the CellInSight™ CX7 High Content Analysis Platform and the number of neurites compared. The exosome yield from patient Pt1 was low allowing for analysis of only one replicate while quantities from Pt2 and Pt3 were sufficient for technical replicates. […]
The CellInSight CX7 High Content Analysis Platform performs automated cellular imaging for quantitative microscopy which was utilized to quantify neurite outgrowth. […]

With “NGF: recombinant nerve growth factor, positive control for PC12 neurite outgrowth”, the “neurite outgrowth (number of β-III tubulin positive neurites)” value (PC12 cells fixed 48 hours after treatment, 3 μg exosomes or NGF 100 ng/ml) is “robustly”. Besides, where the note is “PC12 cells, 24 hour stimulation, recombinant NGF 100 ng/ml set at 100%”, the “neurite outgrowth (total number of beta-III tubulin positive neurites per well)” value was “robust neurite outgrowth”.
